Reference: patent US9926297B2, “Bicyclic AZA compounds as muscarinic M1 receptor and/or M4 receptor agonists” (Heptares Therapeutics Limited, priority 2014, dated 2018)

Tests used:
[1] = target: T1, human muscarinic M2 receptor (Homo sapiens, UniProt P08172); assay: Alphascreen Surefire phospho-ERK1/2 functional assay, M2; conditions: for Emax: CHO, read-out: % Emax cf. ACh, M2, CHO cells stably expressing human M2; for Emax / % Emax cf. ACh, M2: relative to ACh; for pEC50 M2 / % Emax cf. ACh, M2: CHO cells stably expressing human M2; for pEC50 M2: phospho-ERK1/2, * = variable results
T1 sequence (P08172 1-466): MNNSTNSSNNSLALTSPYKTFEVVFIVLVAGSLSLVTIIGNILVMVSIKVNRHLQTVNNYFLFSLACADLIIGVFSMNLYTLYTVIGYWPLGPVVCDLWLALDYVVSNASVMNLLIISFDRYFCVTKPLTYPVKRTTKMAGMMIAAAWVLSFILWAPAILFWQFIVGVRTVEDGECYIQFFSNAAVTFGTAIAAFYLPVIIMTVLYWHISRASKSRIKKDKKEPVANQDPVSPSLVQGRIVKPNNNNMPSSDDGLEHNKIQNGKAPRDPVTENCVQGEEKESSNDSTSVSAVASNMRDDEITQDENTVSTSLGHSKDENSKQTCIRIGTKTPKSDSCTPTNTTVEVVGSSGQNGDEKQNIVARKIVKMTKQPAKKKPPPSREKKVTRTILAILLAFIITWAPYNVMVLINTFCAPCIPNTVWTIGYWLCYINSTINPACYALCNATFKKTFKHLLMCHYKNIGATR
Protocol: CHO cells stably expressing the human muscarinic M1, M2, M3 or M4 receptor were plated (25K/well) onto 96-well tissue culture plates in MEM-alpha+10% dialysed FBS. Once adhered, cells were serum-starved overnight. Agonist stimulation was performed by the addition of 5 μL agonist to the cells for 5 min (37° C.). Media was removed and 50 μL of lysis buffer added. After 15 min, a 4 μL sample was transferred to 384-well plate and 7 μL of detection mixture added. Plates were incubated for 2 h with gentle agitation in the dark and then read on a PHERAstar plate reader.
pEC50 and Emax figures were calculated from the resulting data for each receptor subtype.

[2] = target: human muscarinic M3 receptor (Homo sapiens, UniProt P20309); assay: Alphascreen Surefire phospho-ERK1/2 functional assay, M3; conditions: for Emax: CHO, read-out: % Emax cf. ACh, M3, CHO cells stably expressing human M3; for Emax / % Emax cf. ACh, M3: relative to ACh; for EC50: pEC50 M3, CHO cells stably expressing human M3; for EC50 / pEC50 M3: phospho-ERK1/2, * = variable results; for pEC50 M3 / % Emax cf. ACh, M3: CHO cells stably expressing human M3
Chain of human muscarinic M3 receptor (P20309 whole entry): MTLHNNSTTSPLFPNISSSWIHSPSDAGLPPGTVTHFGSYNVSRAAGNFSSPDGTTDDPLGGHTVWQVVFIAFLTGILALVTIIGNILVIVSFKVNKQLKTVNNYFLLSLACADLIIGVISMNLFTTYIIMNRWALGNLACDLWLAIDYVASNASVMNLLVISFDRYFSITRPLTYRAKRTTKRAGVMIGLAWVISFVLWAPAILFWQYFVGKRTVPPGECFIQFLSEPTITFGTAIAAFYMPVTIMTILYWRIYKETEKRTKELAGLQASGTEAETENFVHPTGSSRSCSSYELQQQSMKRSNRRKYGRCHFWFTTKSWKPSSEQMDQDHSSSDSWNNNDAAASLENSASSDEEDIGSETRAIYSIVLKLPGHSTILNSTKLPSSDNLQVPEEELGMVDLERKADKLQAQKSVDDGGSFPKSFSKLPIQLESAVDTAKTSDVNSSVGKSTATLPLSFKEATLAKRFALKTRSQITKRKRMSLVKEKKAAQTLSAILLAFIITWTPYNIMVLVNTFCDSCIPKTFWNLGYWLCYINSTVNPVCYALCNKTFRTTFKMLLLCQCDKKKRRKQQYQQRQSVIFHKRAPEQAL

[3] = target: T2, human muscarinic M4 receptor (Homo sapiens, UniProt P08173); assay: Alphascreen Surefire phospho-ERK1/2 functional assay, M4; assay type: cell-based; conditions: for EC50 / % Emax cf. ACh, M4: CHO cells stably expressing human M4; for EC50: phospho-ERK1/2, * = variable results, read-out: pEC50 M4 (converted); for Emax: CHO, read-out: % Emax cf. ACh, M4, CHO cells stably expressing human M4; for Emax / % Emax cf. ACh, M4: relative to ACh
T2 construct: expressed in transfected cells
T2 sequence (P08173 1-479): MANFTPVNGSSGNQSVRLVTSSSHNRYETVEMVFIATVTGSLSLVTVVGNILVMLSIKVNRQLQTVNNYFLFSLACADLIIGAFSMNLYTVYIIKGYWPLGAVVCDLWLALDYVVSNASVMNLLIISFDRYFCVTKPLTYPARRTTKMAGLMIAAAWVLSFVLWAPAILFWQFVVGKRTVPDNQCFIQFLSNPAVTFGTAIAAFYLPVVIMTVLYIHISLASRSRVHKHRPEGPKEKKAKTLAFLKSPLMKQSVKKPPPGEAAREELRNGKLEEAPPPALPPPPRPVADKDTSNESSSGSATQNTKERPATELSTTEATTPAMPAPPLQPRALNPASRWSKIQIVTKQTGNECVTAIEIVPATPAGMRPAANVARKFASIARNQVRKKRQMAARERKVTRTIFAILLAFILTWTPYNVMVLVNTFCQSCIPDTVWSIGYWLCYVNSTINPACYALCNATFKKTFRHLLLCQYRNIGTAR

[4] = target: T3, human muscarinic M1 receptor (Homo sapiens, UniProt P11229); assay: Alphascreen Surefire phospho-ERK1/2 functional assay, M1; assay type: cell-based; conditions: for EC50 / % Emax cf. ACh, M1: CHO cells stably expressing human M1; for EC50: phospho-ERK1/2, * = variable results, read-out: pEC50 M1 (converted); for Emax: CHO, read-out: % Emax cf. ACh, M1, CHO cells stably expressing human M1; for Emax / % Emax cf. ACh, M1: relative to ACh
T3 sequence (P11229 1-460): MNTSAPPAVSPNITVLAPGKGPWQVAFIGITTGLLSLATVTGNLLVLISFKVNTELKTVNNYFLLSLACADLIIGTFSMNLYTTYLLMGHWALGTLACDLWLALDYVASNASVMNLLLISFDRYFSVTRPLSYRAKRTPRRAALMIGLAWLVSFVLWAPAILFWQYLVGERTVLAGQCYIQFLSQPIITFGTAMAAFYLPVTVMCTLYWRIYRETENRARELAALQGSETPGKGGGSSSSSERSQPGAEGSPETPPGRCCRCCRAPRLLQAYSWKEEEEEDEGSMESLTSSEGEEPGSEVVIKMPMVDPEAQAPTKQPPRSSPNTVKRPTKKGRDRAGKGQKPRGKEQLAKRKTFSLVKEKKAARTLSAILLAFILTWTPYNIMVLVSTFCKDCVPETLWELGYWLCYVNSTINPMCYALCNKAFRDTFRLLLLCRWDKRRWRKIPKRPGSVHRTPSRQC

CCOC(=O)N1CCC2(CC(N3CCC([C@@H]4CCCN4C(=O)NCCOC)CC3)C2)C1 (single isomer, unassigned) [2-31 Isomer 2]
EC50 [1]: > 20000 nM
Emax [1]: 7%
Emax [2]: 7%
EC50 [2]: > 20000 nM
EC50 [3]: 3.16 nM
Emax [3]: 108%
EC50 [4]: 126 nM
Emax [4]: 93%

CCOC(=O)N1CCC2(CC(N3CCC([C@@H]4CCCN4C(=O)N4CCCC4)CC3)C2)C1 (single isomer, unassigned) [2-32 Isomer 2]
EC50 [1]: > 20000 nM
Emax [1]: 52%
Emax [2]: 11%
EC50 [2]: > 20000 nM
EC50 [3]: 12.6 nM
Emax [3]: 110%
EC50 [4]: 2510 nM
Emax [4]: 69%

CCOC(=O)N1CCC2(CC(N3CCC([C@@H]4CCCN4C(=O)NOC)CC3)C2)C1 (single isomer, unassigned) [2-33 Isomer 1]
EC50 [1]: > 20000 nM
Emax [1]: 8%
Emax [2]: 3%
EC50 [2]: > 20000 nM
EC50 [3]: 7.94 nM
% Emax cf. ACh, M4 [3]: 109%
EC50 [4]: 398 nM
% Emax cf. ACh, M1 [4]: 86%

CCOC(=O)N1CCC2(CC(N3CCC([C@@H]4CCCN4C(=O)NOC)CC3)C2)C1 (single isomer, unassigned) [2-33 Isomer 2]
pEC50 M2 [1]: < 4.7
% Emax cf. ACh, M2 [1]: 5%
pEC50 M3 [2]: < 4.7
% Emax cf. ACh, M3 [2]: 5%
EC50 [3]: 20 nM
% Emax cf. ACh, M4 [3]: 65%
EC50 [4]: > 20000 nM
% Emax cf. ACh, M1 [4]: 4%

CCOC(=O)N1CCC2(CC(N3CCC([C@@H]4CCCN4C(=O)N(C)OC)CC3)C2)C1 (single isomer, unassigned) [2-34 Isomer 1]
EC50 [1]: > 20000 nM
% Emax cf. ACh, M2 [1]: 16%
% Emax cf. ACh, M3 [2]: 8%
EC50 [2]: > 20000 nM
EC50 [3]: 25.1 nM
% Emax cf. ACh, M4 [3]: 89%
EC50 [4]: 2000 nM
Emax [4]: 74%

CCOC(=O)N1CCC2(CC(N3CCC([C@@H]4CCCN4C(=O)N(C)OC)CC3)C2)C1 (single isomer, unassigned) [2-34 Isomer 2]
pEC50 M2 [1]: < 4.7
% Emax cf. ACh, M2 [1]: 3%
pEC50 M3 [2]: < 4.7
% Emax cf. ACh, M3 [2]: 39%
EC50 [3]: 251 nM
% Emax cf. ACh, M4 [3]: 58%
EC50 [4]: 3160 nM
% Emax cf. ACh, M1 [4]: 56%

CCOC(=O)N1CCC2(CC(N3CCC([C@@H]4CCCN4C(=O)NC4(C)CCC4)CC3)C2)C1 (single isomer, unassigned) [2-35 Isomer 2]
EC50 [1]: > 20000 nM
Emax [1]: 1%
Emax [2]: 4%
EC50 [2]: > 20000 nM
EC50 [3]: 15.8 nM
Emax [3]: 92%
EC50 [4]: 398 nM
Emax [4]: 108%

CCOC(=O)N1CCC2(CC(N3CCC([C@@H]4CCCN4C(=O)NC4(C)COC4)CC3)C2)C1 (single isomer, unassigned) [2-36 Isomer 2]
EC50 [1]: > 20000 nM
Emax [1]: 3%
Emax [2]: 5%
EC50 [2]: > 20000 nM
EC50 [3]: 6.31 nM
Emax [3]: 113%
EC50 [4]: 158 nM
Emax [4]: 89%

CCOC(=O)N1CCC2(CC(N3CCC([C@@H]4CCCN4C(=O)N4CCC(F)(F)C4)CC3)C2)C1 (single isomer, unassigned) [2-37 Isomer 2]
EC50 [1]: > 20000 nM
Emax [1]: 33%
Emax [2]: 58%
EC50 [2]: > 20000 nM
EC50 [3]: 20 nM
Emax [3]: 83%
EC50 [4]: 3160 nM
Emax [4]: 106%

CCOC(=O)N1CCC2(CC(N3CCC([C@@H]4CCCN4C(=O)NC4CC(F)(F)C4)CC3)C2)C1 (single isomer, unassigned) [2-38 Isomer 2]
EC50 [1]: > 20000 nM
Emax [1]: 1%
Emax [2]: 2%
EC50 [2]: > 20000 nM
EC50 [3]: 5.01 nM
Emax [3]: 115%
EC50 [4]: 158 nM
Emax [4]: 110%

CCOC(=O)N1CCC2(CC(N3CCC([C@@H]4CCCN4C(=O)N4CC(F)(F)C4)CC3)C2)C1 (single isomer, unassigned) [2-39 Isomer 2]
EC50 [1]: > 20000 nM
Emax [1]: 1%
Emax [2]: 1%
EC50 [2]: > 20000 nM
EC50 [3]: 15.8 nM
Emax [3]: 76%
EC50 [4]: 2510 nM
Emax [4]: 41%

COC(=O)N1CCC2(CC(N3CCC([C@@H]4CCCN4C(=O)NCC(F)(F)F)CC3)C2)C1 (single isomer, unassigned) [2-40 Isomer 2]
EC50 [1]: > 20000 nM
Emax [1]: 2%
Emax [2]: 1%
EC50 [2]: > 20000 nM
EC50 [3]: 31.6 nM
Emax [3]: 90%
EC50 [4]: 794 nM
Emax [4]: 78%

CCOC(=O)N1CCC2(CC(N3CCC([C@@H]4CCCN4C(=O)OC4CCC4)CC3)C2)C1 (single isomer, unassigned) [2-43 Isomer 2]
EC50 [1]: > 20000 nM
Emax [1]: 4%
Emax [2]: 5%
EC50 [2]: > 20000 nM
EC50 [3]: 50.1 nM
Emax [3]: 47%
EC50 [4]: 3160 nM
Emax [4]: 19%

CCOC(=O)N1CCC2(CC(N3CCC([C@@H]4CCCN4C(=O)NCCF)CC3)C2)C1 (single isomer, unassigned) [2-44 Isomer 2]
EC50 [1]: > 20000 nM
Emax [1]: 4%
Emax [2]: 8%
EC50 [2]: > 20000 nM
EC50 [3]: 5.01 nM
Emax [3]: 100%
EC50 [4]: 316 nM
Emax [4]: 71%

CCOC(=O)N1CCC2(CC(N3CCC([C@@H]4CCCN4C(=O)NCC(F)F)CC3)C2)C1 (single isomer, unassigned) [2-45 Isomer 2]
EC50 [1]: > 20000 nM
Emax [1]: 5%
Emax [2]: 5%
EC50 [2]: > 20000 nM
EC50 [3]: 5.01 nM
Emax [3]: 111%
EC50 [4]: 251 nM
Emax [4]: 67%

CCOC(=O)N1CCC2(CC(N3CCC([C@@H]4CCCN4C(=O)COC)CC3)C2)C1 (single isomer, unassigned) [2-46 Isomer 2]
EC50 [1]: > 20000 nM
Emax [1]: 5%
Emax [2]: 8%
EC50 [2]: > 20000 nM
EC50 [3]: 15.8 nM
Emax [3]: 85%
EC50 [4]: 1580 nM
Emax [4]: 32%

CCOC(=O)N1CCC2(CC(N3CCC([C@@H]4CCCN4C(=O)OCC(F)(F)F)CC3)C2)C1 (single isomer, unassigned) [2-48 Isomer 2]
EC50 [1]: > 20000 nM
Emax [1]: 3%
Emax [2]: 5%
EC50 [2]: > 20000 nM
EC50 [3]: 10 nM
Emax [3]: 81%
EC50 [4]: 316 nM
Emax [4]: 34%

CCOC(=O)N1CCC2(CC(N3CCC([C@@H]4CCCN4C(=O)OCCOC)CC3)C2)C1 (single isomer, unassigned) [2-50 Isomer 2]
EC50 [1]: > 20000 nM
Emax [1]: 4%
Emax [2]: 2%
EC50 [2]: > 20000 nM
EC50 [3]: 25.1 nM
Emax [3]: 73%
EC50 [4]: 251 nM
Emax [4]: 63%

CCOC(=O)N1CCC2(CC(N3CCC([C@@H]4CCCN4C(=O)OCCN(C)C)CC3)C2)C1 (single isomer, unassigned) [2-51 Isomer 2]
EC50 [1]: > 20000 nM
Emax [1]: 1%
Emax [2]: 3%
EC50 [2]: > 20000 nM
EC50 [3]: 63.1 nM
Emax [3]: 53%
EC50 [4]: > 20000 nM
Emax [4]: 237%
